Format in all cases: cell-based
One test concerns the target Helios (IKZF2) (Homo sapiens, UniProt Q96SW2+Q9UKS7). The test is described as follows: Screening of Helios protein degraders using Nano-Glo HiBiT cell line (HiBiT-IKZF2). As to conditions: 6 hours, HiBiT-Helios knock-in Jurkat cells; for remaining activity at 10 µM: compound 10 μM, read-out: HiBiT-IKZF2 Residual amount of Helios (%) 10 μM.
The target in test [1] is IKZF2 over IKZF1, IKZF3, and IKZF4 (Homo sapiens, UniProt Q96SW2+Q9UKS7). The experiment in a line: Selective degradation of IKZF2 over IKZF1, IKZF3 and IKZF4.
In another test the target is IKZF2 (Helios) (Homo sapiens, UniProt Q96SW2+Q9UKS7). The experiment in a line: Screening of DC50 (nM) and Dmax (%) using WB-IKZF2 cell line (Western blot). More on the design: endogenous in cells. The conditions noted are these: 6 hours; for DC50: read-out: WB-IKZF2 DC 50. The method, then:
Experimental Example 2. Screening of DC50 (nM) and Dmax (%) Using WB-IKZF2 Cell Line
Candidate degraders were serially diluted and treated in cells cultured in complete medium, followed by incubation for 6 hours at 37° C. in a CO2 incubator. After 6 hours, the cells were harvested and lysed in RIPA buffer (150 mM NaCl, 1% Triton X-100, 1% sodium deoxycholate, 0.1% SDS, 50 mM Tris-HCl pH 7.5, and 2 mM EDTA) containing a protease inhibitor cocktail (Roche). The mixture was vortexed every 10 minutes and incubated on ice for 30 minutes, followed by centrifugation at 13,000 rpm for 10 minutes at 4° C. to isolate proteins. The isolated proteins were quantified using the Bradford assay (Bio-Rad, 5000006). Proteins were separated on 8% SDS-polyacrylamide gel, transferred onto nitrocellulose membranes (Amersham, 10600002), and incubated with primary antibodies at 4° C. for 18 hours. The following primary antibodies were used: anti-Helios rabbit monoclonal antibody (Cell Signaling, 42427, 1:3000) and anti-β-actin mouse monoclonal antibody (Santa Cruz, sc-47778, 1:5000). β-actin was used as a loading control. The next day, the membranes were washed with 1×TBST for 30 minutes and incubated with HRP-conjugated secondary antibodies corresponding to the primary antibodies at room temperature for 1 hour. The following secondary antibodies were used: anti-mouse IgG HRP-linked antibody (Sigma, A9044, 1:5000) and anti-rabbit IgG HRP-linked antibody (Cell Signaling, 7074, 1:5000). After washing with 1×TBST for 30 minutes, protein expression was visualized using the Pierce ECL Western blotting substrate (Thermo Fisher, 32106), and images were captured using a chemiluminescence image analysis system (GE Healthcare, AI680). The obtained images were quantified using the ImageJ software.

For another test, the target named is T1, Helios protein (Homo sapiens, UniProt Q96SW2+Q9UKS7).
T1 construct: endogenous in cells; host or cells: Jurkat cells
The experiment in a line: Measurement of Helios protein degradation using Western blot analysis in Jurkat cells (FIG. 1). The conditions noted are these: 6 hours. The procedure: To confirm the degradation of Helios protein by the degrader, Western blot analysis was performed. Jurkat cells (5×10^6) in complete medium were treated with serial dilutions of the compound at 37° C. in a CO2 incubator for 6 hours.
After harvesting the cells, they were lysed in RIPA buffer (LPS solution, CRB002) containing a protease inhibitor cocktail (Roche). The lysates were incubated on ice for 30 minutes with vortexing every 10 minutes, followed by centrifugation at 13,000 rpm for 10 minutes at 4° C. to isolate the cell lysates. The lysates were quantified using the Bradford assay (Bio-Rad, 5000006).
30 μg of the lysates were separated by 8% SDS-polyacrylamide gel electrophoresis (SDS-PAGE), and the proteins were transferred to a nitrocellulose (NC) membrane (Amersham, 10600002), followed by incubation with primary antibodies at 4° C. for 18 hours. […]
After washing with 1×TBST for 30 minutes, protein expression was visualized using Pierce ECL Western blotting substrate (Thermo Fisher, 32106), and the images were acquired using a chemiluminescence imaging system (GE Healthcare, AI680). The resulting images were quantified using ImageJ software. The results of Helios protein degradation measured with compound 39 of the present disclosure and comparative compound DKY709 are shown in FIG. 1.

Read-outs that look alike come from different tables or passages of the source.

Sequence of IKZF2 (Helios) (Q9UKS7 whole entry): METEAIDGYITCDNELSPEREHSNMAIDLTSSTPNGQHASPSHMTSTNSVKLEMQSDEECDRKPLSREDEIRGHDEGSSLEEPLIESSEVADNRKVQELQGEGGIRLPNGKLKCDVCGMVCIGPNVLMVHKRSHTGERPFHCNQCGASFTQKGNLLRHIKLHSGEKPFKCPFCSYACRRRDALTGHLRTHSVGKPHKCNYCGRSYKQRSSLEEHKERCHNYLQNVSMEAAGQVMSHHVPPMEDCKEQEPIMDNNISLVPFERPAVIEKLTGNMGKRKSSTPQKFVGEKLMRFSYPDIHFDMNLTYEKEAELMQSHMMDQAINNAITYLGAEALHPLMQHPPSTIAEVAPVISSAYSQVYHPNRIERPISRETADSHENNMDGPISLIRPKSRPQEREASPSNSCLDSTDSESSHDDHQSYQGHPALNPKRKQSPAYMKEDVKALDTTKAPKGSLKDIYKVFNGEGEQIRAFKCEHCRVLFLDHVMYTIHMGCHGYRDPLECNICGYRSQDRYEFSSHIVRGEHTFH
Sequence of IKZF2 (Helios) (Q96SW2 whole entry): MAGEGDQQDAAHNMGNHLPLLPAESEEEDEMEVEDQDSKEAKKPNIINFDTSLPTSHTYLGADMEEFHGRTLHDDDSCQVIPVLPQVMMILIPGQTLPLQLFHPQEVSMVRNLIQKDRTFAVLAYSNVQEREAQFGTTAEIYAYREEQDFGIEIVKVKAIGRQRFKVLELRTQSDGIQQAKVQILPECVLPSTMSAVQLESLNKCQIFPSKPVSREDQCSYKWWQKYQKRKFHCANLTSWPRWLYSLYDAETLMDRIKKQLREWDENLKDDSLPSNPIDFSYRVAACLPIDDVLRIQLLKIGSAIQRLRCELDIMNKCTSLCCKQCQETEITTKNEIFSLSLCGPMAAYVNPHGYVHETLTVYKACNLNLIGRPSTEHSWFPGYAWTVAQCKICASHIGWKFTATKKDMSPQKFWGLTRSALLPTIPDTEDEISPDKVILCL
Sequence of IKZF2 (Helios) (Q16531 whole entry partner): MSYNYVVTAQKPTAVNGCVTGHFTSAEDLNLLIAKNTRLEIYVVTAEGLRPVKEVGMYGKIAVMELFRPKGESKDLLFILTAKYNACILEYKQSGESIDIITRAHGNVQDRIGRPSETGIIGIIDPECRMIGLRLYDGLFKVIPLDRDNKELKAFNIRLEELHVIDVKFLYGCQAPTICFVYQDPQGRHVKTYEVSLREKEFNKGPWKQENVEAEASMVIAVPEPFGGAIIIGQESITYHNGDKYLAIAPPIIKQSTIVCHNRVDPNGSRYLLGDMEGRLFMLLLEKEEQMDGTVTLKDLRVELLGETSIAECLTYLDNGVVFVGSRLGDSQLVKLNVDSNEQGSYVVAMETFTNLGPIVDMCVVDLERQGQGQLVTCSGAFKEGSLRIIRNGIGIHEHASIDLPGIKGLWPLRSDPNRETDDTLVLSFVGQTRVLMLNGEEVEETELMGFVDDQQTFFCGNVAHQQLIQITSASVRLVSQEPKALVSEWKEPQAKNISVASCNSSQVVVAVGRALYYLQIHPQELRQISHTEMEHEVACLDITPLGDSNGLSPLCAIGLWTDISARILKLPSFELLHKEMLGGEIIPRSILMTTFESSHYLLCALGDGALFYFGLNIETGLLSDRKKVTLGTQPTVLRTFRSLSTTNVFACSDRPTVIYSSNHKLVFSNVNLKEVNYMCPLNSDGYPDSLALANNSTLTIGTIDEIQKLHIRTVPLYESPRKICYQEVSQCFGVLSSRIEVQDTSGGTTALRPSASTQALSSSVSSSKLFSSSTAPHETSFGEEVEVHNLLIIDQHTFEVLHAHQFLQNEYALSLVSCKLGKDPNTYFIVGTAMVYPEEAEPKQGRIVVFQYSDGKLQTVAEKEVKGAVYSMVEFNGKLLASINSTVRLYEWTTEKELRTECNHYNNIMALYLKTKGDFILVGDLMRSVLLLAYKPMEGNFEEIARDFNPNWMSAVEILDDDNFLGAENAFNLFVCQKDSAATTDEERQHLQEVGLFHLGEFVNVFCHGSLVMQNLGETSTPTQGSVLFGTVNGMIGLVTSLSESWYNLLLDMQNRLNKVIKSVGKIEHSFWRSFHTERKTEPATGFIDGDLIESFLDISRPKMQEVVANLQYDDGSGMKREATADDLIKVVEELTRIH
Sequence of Helios (IKZF2) (Q9UKS7 whole entry): as the sequence (Q9UKS7 whole entry) above
Sequence of Helios (IKZF2) (Q96SW2 whole entry): as the sequence (Q96SW2 whole entry) above
Sequence of Helios (IKZF2) (Q16531 whole entry partner): as the sequence (Q16531 whole entry partner) above
T1 sequence (Q9UKS7 whole entry): as the sequence (Q9UKS7 whole entry) above
T1 sequence (Q96SW2 whole entry): as the sequence (Q96SW2 whole entry) above
T1 sequence (Q16531 whole entry partner): as the sequence (Q16531 whole entry partner) above

Turning to `O=C1CCC(N2Cc3cc(C4CCN(C(=O)c5[nH]c6cc(Cl)ccc6c5CN5CCOCC5)CC4)ccc3C2=O)C(=O)N1` (centres unmarked) [Compound 82, 3-(5-(1-(6-chloro-3-(morpholinomethyl)-1H-indole-2-carbonyl)piperidin-4-yl)-1-oxoinsoindolin-2-yl)piperidine-2,6-dione], the remaining activity at 10 µM on Helios (IKZF2) was 7.4%. Moreover, the “selective degradation activity for IKZF2 over IKZF1, IKZF3, and IKZF4” value in test [1] is “selective degradation activity for IKZF2 over IKZF1, IKZF3, and IKZF4”. In addition, the DC50 at IKZF2 (Helios) (class symbols) lay in the range of 10 to 100 nM.
Consider `Cc1c(C(=O)N2CCC(c3ccc4c(c3)CN(C3CCC(=O)NC3=O)C4=O)CC2)[nH]c2cc(Cl)ccc12` (centres unmarked) [Compound 39, 3-(5-(1-(6-chloro-3-methyl-1H-indole-2-carbonyl)piperidin-4-yl)-1-oxoinsoindolin-2-yl)piperidine-2,6-dione], for which the remaining activity at 1 µM at Helios (IKZF2) (compound 1 μM, read-out: HiBiT-IKZF2 Residual amount of Helios (%) 1 μM) turned out to be 6.6%. The remaining activity at 10 µM on Helios (IKZF2) stood at 5.5%. Further, on Helios protein, the “Helios protein degradation activity compared to comparative compound 1 (DKY709)” value was “more than 1,000 fold”. The compound also yielded a Dmax on IKZF2 (Helios) of 100%. Also, the DC50 on IKZF2 (Helios) (numeric value) turned out to be 0.19 nM.
